Results published in paper PMC7707092, “Discovery and characterization of ORM‐11372, a novel inhibitor of the sodium‐calcium exchanger with positive inotropic activity” (British Journal of Pharmacology, 2020).
Like-named read-outs stand apart in the source and are kept apart here.

Experiments:
hNCX1 = hNCX1 (Homo sapiens, UniProt P32418); experiment: Confirmatory fluorescence assay for hNCX1 inhibition (forward mode, HEK293 cells, Charles River); assay type: cell-based; details: HEK293, forward mode
Experimental: A confirmatory hNCX1 inhibition assay was performed in Charles River Laboratories, Cleveland. Briefly, HEK293 cells stably expressing hNCX1 were plated in 384‐well black wall, clear‐bottom microtitre plates and the next day loaded with Fluo‐8 for 30 min at 37°C. A plate was inserted into a FLIPR^TETRA, and a baseline was recorded during a preincubation period where test compound or vehicle in a Na^+‐free HB‐PS containing thapsigargin (6 μM) and […] (30 μM) was added to each well for ~5 min. Next, the NCX1 stimulation period was recorded in which Na^+‐containing HB‐PS (with 2‐μM thapsigargin and 10‐μM FCCP) was added. The experiments were performed at room temperature. The kinetic data generated were reduced for each well to maximum relative fluorescence units (RFU) minus minimum RFU after subtracting bias based on the first sample. The mean of the max–min RFU values during the stimulation period for the 3–4 replicates at each concentration on a plate was then plotted versus concentration and fitted to a Hill equation.

MAO B = target: T1, MAO B (Homo sapiens, UniProt P27338); experiment: MAO B inhibition (Table S2); assay type: biochemical
T1 sequence (P27338 1-520): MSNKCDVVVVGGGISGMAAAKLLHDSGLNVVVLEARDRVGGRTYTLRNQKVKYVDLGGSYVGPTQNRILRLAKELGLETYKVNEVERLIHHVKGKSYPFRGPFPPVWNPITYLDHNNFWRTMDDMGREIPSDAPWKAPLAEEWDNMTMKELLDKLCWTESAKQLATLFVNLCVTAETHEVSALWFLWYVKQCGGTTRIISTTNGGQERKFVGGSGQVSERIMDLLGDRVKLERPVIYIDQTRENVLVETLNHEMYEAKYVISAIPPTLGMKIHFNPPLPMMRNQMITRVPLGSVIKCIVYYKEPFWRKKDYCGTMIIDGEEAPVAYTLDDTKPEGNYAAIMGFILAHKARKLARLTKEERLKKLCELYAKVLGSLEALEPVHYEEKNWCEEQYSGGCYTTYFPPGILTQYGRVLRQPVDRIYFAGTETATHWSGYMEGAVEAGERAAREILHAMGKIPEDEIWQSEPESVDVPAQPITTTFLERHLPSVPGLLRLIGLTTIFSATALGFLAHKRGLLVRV

[1] = target: hERG KV11.1 current (I hERG) (Homo sapiens, UniProt Q12809); experiment: KV11.1 channel current (I hERG), QPatch automated patch‐clamp, CHO–hERG cells; assay type: cell-based
Sequence of hERG KV11.1 current (I hERG) (Q12809 whole entry): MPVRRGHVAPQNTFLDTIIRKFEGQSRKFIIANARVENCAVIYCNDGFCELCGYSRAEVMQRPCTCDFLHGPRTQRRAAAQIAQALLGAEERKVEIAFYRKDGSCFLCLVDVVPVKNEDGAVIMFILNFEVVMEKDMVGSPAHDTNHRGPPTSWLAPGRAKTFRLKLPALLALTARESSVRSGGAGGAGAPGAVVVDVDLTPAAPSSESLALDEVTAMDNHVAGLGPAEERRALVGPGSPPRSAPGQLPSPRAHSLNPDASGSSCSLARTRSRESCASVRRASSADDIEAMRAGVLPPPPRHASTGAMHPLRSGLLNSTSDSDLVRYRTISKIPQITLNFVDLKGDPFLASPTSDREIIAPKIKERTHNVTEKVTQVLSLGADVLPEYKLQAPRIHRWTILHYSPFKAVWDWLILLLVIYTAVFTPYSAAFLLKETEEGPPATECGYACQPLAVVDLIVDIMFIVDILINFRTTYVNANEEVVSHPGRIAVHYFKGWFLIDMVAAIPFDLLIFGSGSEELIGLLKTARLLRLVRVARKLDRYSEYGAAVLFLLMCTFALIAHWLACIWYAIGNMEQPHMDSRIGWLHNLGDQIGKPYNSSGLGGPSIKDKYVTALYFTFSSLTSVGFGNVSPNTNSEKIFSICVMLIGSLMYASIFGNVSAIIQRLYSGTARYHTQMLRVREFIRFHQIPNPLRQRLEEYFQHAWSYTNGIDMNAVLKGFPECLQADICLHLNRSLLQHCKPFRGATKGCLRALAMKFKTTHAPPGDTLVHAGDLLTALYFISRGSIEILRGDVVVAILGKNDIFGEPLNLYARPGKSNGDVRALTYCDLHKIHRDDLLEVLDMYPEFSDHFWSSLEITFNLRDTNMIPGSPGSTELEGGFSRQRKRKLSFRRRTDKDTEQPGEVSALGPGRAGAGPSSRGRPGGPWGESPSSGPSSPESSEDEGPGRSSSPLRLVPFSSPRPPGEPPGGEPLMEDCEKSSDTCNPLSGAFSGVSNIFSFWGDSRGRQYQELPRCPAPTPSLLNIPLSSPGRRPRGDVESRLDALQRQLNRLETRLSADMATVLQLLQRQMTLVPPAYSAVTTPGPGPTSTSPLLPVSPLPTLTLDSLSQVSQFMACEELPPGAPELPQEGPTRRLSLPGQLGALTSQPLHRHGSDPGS
Text: The hERG‐encoded voltage‐dependent potassium channel current (I hERG) cells to be studied were harvested with Detachin solution and either diluted with a volume of CHO cell serum‐free media (supplemented with 100 IU·ml^−1 of penicillin/streptomycin and 25‐mM HEPES) to obtain cells, for which the cell density was ~4 x10^6 cells·ml^−1, or plated on glass coverslips and used on the following 1–2 days. HEK 293 cells were transiently transfected using lipofectamine (Invitrogen, USA), with a human sodium voltage‐gated channel subunit 5 (hSCN5) A (transcript variant 2)‐containing plasmid, in Optimem medium. […]
In addition, after loading the CHO–hERG cell suspension, whole‐cell voltage‐clamp values were recorded at room temperature on a QPatch 16× automated patch‐clamp (Sophion Biosciences), in the single‐hole mode. […] The hERG tail current was measured as the difference between the peak tail current amplitude during the repolarization step and leak current measurement step. Subsequently, the voltage dependence of the block was also assessed, by carrying out depolarization for 4 s, from −80 to +60 mV in 10‐mV steps, before and after the addition of 20‐μM ORM‐11372 (n = 7). The peak tail current elicited during the 5 s repolarization step to −50 mV was measured and plotted against the preceding depolarization step voltage values.

[2] = target: peripheral benzodiazepine receptor (Rattus norvegicus, UniProt P16257); experiment: Radioligand binding selectivity panel (Eurofins Cerep); details: read-out: inhibition of specific ligand binding
Experimental: Radioligand binding assays were performed at Eurofins Cerep SA (Celle L'Evescault, France), for testing the inhibition capacity of ORM‐11372 (at 10 μM with two replicates), in over 75 targets. These included receptors (e.g., human A1, A2A, and A3 adenosine receptors; α1 and α2 adrenoceptors; human β1–β3 adrenergic receptors; human D1, D2S, D3, D4.4, and D5 dopamine receptors; EGF and VEGF receptors; human M1–M5 muscarinic ACh receptors; human 5‐HT1A, 5‐HT2A, 5‐HT2B, 5‐HT2C, 5‐HT4e, 5‐HT5A, 5‐HT6, and 5‐HT7 receptors), ion channels (5‐HT3, Ca^2+, ATP‐dependent potassium channel [KATP], voltage‐dependent potassium channel [KV], small‐conductance calcium‐dependent potassium channel [SKCa], Na^+, and Cl^−), and transporters (adenosine, noradrenaline, dopamine, and 5‐HT). Follow‐up functional studies (with five concentrations and two replicates) were performed for 5‐HT2A receptors and noradrenaline transporter. Agonism and antagonism at h5‐HT2A receptors was explored in recombinant HEK 293 cells and intracellular calcium changes were detected using fluorimetry. Noradrenaline uptake was measured by carrying out scintillation counting of [^3H]noradrenaline incorporated into rat hypothalamus synaptosomes.

5‐HT2B receptor = 5‐HT2B receptor (Homo sapiens, UniProt P41595); experiment: 5‐HT2B agonist and antagonist assay, intracellular calcium in CHO–5‐HT2B cells; assay type: cell-based
Sequence of 5‐HT2B receptor (P41595 whole entry): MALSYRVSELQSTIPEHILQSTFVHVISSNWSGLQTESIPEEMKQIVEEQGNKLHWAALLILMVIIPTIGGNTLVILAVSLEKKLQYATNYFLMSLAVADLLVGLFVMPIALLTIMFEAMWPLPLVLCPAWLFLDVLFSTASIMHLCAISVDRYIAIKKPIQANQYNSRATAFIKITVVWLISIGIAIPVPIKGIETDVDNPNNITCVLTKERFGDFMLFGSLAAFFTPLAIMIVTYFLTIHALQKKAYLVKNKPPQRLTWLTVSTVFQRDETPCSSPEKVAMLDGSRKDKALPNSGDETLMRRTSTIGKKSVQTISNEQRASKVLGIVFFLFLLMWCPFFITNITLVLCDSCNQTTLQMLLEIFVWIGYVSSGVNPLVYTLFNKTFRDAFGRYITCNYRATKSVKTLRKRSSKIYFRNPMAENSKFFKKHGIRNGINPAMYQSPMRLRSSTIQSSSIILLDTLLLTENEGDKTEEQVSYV
Text: The hERG‐encoded voltage‐dependent potassium channel current (I hERG) cells to be studied were harvested with Detachin solution and either diluted with a volume of CHO cell serum‐free media (supplemented with 100 IU·ml^−1 of penicillin/streptomycin and 25‐mM HEPES) to obtain cells, for which the cell density was ~4 x10^6 cells·ml^−1, or plated on glass coverslips and used on the following 1–2 days. HEK 293 cells were transiently transfected using lipofectamine (Invitrogen, USA), with a human sodium voltage‐gated channel subunit 5 (hSCN5) A (transcript variant 2)‐containing plasmid, in Optimem medium. After a 5‐h incubation period, the transfection medium was replaced with the normal growth medium. The cells were harvested by trypsinization, centrifuged and resuspended in the appropriate extracellular solution for performing studies the next day. CHO–5‐HT2B cells were plated into 96‐well plates on the previous day, at a density of 4 x10^4 cells per well, with a modified version of the growth media.
Changes in the intracellular calcium concentration of CHO–5‐HT2B cells in the probenecid‐R inger were measured, using Fluo‐4 or calcium 3 dyes and the FLEXstation, at 37°C. […]

[3] = Table S2, read-out: hNCX1-HEK IC50

| IC50 (hNCX1; [3]) [nM] | MAO B inhibition (MAO B; 10 μM) [%] | IC50 (MAO B) [nM] | SMILES | IC50 (hNCX1; 0.3% DMSO, read-out: IC50 hNCX1 calcium efflux signal) [nM] | IC50 (hNCX1; 1% DMSO, read-out: IC50 hNCX1 calcium efflux signal) [nM] | slope k of I hERG activation curve (Boltzmann fit) ([1]; 20 µM ORM-11372, n=7, control 6.9 ± 0.3 mV) [mV] | IC50 ([1]; automated patch‐clamp, room temperature) [nM] | inhibition at 10 µM [2] [%] | agonist activity at 5‐HT2B receptors (5‐HT2B receptor) | inhibition at 10 µM (5‐HT2B receptor; 10 μM, evoked by 10‐nM 5‐HT, read-out: inhibition of 5‐HT2B receptor‐mediated increase in intracellular calcium) [%] | inhibition at 10 µM (MAO B; 10 μM) [%] |
| --- | --- | --- | --- | --- | --- | --- | --- | --- | --- | --- | --- |
| 630 | 52 |  | O=C(CN1CCC(O)CC1)Nc1ccc(Oc2ccc3c(c2)CCC(c2ccccc2)O3)nc1 (stereo not drawn) [ORM-10962] |  |  |  |  |  |  |  |  |
|  |  |  | Nc1cccc(-c2ccc(CNc3ccc(F)cc3)o2)c1 [ORM‐11372] | 142 | 164 | 5.5 ± 0.1 | 19200 | > 50 | no agonist activity | 38 | 77 |
| 2210 |  | 176 | CCOc1ccc(Oc2ccc(OCc3cc(F)ccc3F)cc2)c(N)c1 [SEA0400, reference compound] |  |  |  |  |  |  |  |  |
